Measured values: patent publication US7468376B2, “Pyrazolopyridine derivates” (Palau Pharma, S.A., priority 2003, dated 2008)

test system: TNF-α release induced by LPS in human peripheral blood mononuclear cells; assay: Test 2: Inhibition of TNF-α release induced by LPS in human peripheral blood mononuclear cells; assay type: cell-based; conditions: Homo sapiens, PBMC, test product at 0.1 μM, LPS 400 ng/mL, 19 h, TNF-α in supernatant by ELISA
Description: Test 2: Inhibition of TNF-α Release Induced by LPS in Human Peripheral Blood Mononuclear Cells
To obtain the mononuclear cells: heparinized venous blood, obtained from healthy volunteers, is diluted with an equal volume of saline phosphate buffer without calcium or magnesium. Aliquots of 30 mL of the mixture are transferred to 50 mL centrifuge tubes containing 15 mL of Ficoll-Hypaque (1.077 g/mL). The tubes are centrifuged at 1200×g for 20 min at room temperature without braking. Approximately two-thirds of the band of platelets lying above the mononuclear cells is removed with a pipette. The mononuclear cells are carefully transferred to a 50 mL tube, washed twice with saline phosphate buffer, centrifuged at 300×g for 10 min at room temperature and resuspended in RPMI supplemented with 1% inactivated fetal bovine serum at a cell density of 2×10^6 cells/mL.
Inhibition of TNF-α release: 100 μL of mononuclear cells (2×10^6 cells/mL) are incubated on 96-well plates with 50 μL of the test product (final concentration, 0.001-10 μM) and 50 μL LPS (E. coli 055B5, Sigma) at a final concentration of 400 ng/mL for 19 h at 37° C. in an atmosphere with CO2 at 5%. The amount of TNF-α released in the supernatant is quantified using a commercial ELISA kit (Biosource International).

Compared with Fc1ccc(-c2nc3[nH]ncc3c(-c3ccc(F)cc3)c2-c2ccncc2)cc1 [Example 1, 4,6-Bis(4-fluorophenyl)-5-(4-pyridyl)-1H-pyrazolo[3,4-b]pyridine], Oc1ccc(-c2c(-c3ccncc3)c(-c3ccc(F)cc3)nc3[nH]ncc23)cc1 [Example 72, 4-[6-(4-Fluorophenyl)-5-(4-pyridyl)-1H-pyrazolo[3,4-b]pyridin-4-yl]phenol] is lower in inhibition at 0.1 µM: 57.5% for the first, 52.7% for the second.

First: Cc1n[nH]c2nc(-c3ccc(F)cc3)c(-c3ccncc3)c(-c3ccc(F)cc3)c12 [Example 4, 4,6-Bis(4-fluorophenyl)-3-methyl-5-(4-pyridyl)-1H-pyrazolo[3,4-b]pyridine]
Second: Fc1ccc(-c2nc3[nH]nc(Cl)c3c(-c3ccc(F)cc3)c2-c2ccncc2)cc1 [Example 63, 3-Chloro-4,6-bis(4-fluorophenyl)-5-(4-pyridyl)-1H-pyrazolo[3,4-b]pyridine]
The inhibition at 0.1 µM of the first is higher: 68.4% for the first, 53.2% for the second.

Going from CCn1cc2c(-c3ccc(F)cc3)c(-c3ccncc3)c(-c3ccc(F)cc3)nc2n1 [Example 6, 2-Ethyl-4,6-bis(4-fluorophenyl)-5-(4-pyridyl)pyrazolo[3,4-b]pyridine] to Cn1cc2c(-c3ccc(F)cc3)c(-c3ccncc3)c(-c3ccc(F)cc3)nc2n1 [Example 8, 4,6-Bis(4-fluorophenyl)-2-methyl-5-(4-pyridyl)pyrazolo[3,4-b]pyridine], the inhibition at 0.1 µM falls from 81.4% to 66.3%.

Going from Cn1cc2c(-c3ccccc3)c(-c3ccncc3)c(-c3ccccc3)nc2n1 [Example 22, 2-Methyl-4,6-diphenyl-5-(4-pyridyl)pyrazolo[3,4-b]pyridine] to OCCn1cc2c(-c3ccccc3)c(-c3ccncc3)c(-c3ccccc3)nc2n1 [Example 196, 2-[4,6-Diphenyl-5-(4-pyridyl)pyrazolo-[3,4-b]pyridin-2-yl]ethanol], the inhibition at 0.1 µM rises from 56.5% to 70.2%.

First: Fc1ccc(-c2nc3nn(CCN4CCOCC4)cc3c(-c3ccc(F)cc3)c2-c2ccncc2)cc1 [Example 30, 4,6-Bis(4-fluorophenyl)-2-[2-(morpholin-4-yl)ethyl]-5-(4-pyridyl)pyrazolo[3,4-b]pyridine]
Second: OC1CCN(CCn2cc3c(-c4ccc(F)cc4)c(-c4ccncc4)c(-c4ccc(F)cc4)nc3n2)CC1 [Example 106, 1-[2-[4,6-Bis(4-fluorophenyl)-5-(4-pyridyl)pyrazolo[3,4-b]pyridin-2-yl]ethyl]piperidin-4-ol]
The inhibition at 0.1 µM of the first is higher: 83.6% for the first, 69.3% for the second.

Compared with Fc1ccc(-c2nc3nn(C4CCNCC4)cc3c(-c3ccc(F)cc3)c2-c2ccncc2)cc1 [Example 36, 4,6-Bis(4-fluorophenyl)-2-(4-piperidyl)-5-(4-pyridyl)pyrazolo[3,4-b]pyridine], Fc1ccc(-c2nc3nn(CCC4CCNCC4)cc3c(-c3ccc(F)cc3)c2-c2ccncc2)cc1 [Example 43, 4,6-Bis(4-fluorophenyl)-2-[2-(4-piperidyl)ethyl]-5-(4-pyridyl)pyrazolo[3,4-b]pyridine] is lower in inhibition at 0.1 µM: 92% for the first, 61.2% for the second.

Compared with Fc1ccc(-c2nc3c(cnn3CC3CCNCC3)c(-c3ccc(F)cc3)c2-c2ccncc2)cc1 [Example 39, 4,6-Bis(4-fluorophenyl)-1-(4-piperidylmethyl)-5-(4-pyridyl)pyrazolo[3,4-b]pyridine], CN(C)C(=O)Cn1cc2c(-c3ccc(F)cc3)c(-c3ccncc3)c(-c3ccc(F)cc3)nc2n1 [Example 80, 2-[4,6-Bis(4-fluorophenyl)-5-(4-pyridyl)pyrazolo[3,4-b]pyridin-2-yl]-N,N-dimethylacetamide] is higher in inhibition at 0.1 µM: 51.1% for the first, 69.3% for the second.

First: C[S+]([O-])c1ccc(-n2cc3c(-c4ccc(F)cc4)c(-c4ccncc4)c(-c4ccc(F)cc4)nc3n2)cc1 (stereo not shown) [Example 56, 4,6-Bis(4-fluorophenyl)-2-(4-methylsulfinylphenyl)-5-(4-pyridyl)pyrazolo[3,4-b]pyridine]
Second: C[S+]([O-])c1ccc(Cn2cc3c(-c4ccc(F)cc4)c(-c4ccncc4)c(-c4ccc(F)cc4)nc3n2)cc1 (stereo not shown) [Example 59, 4,6-Bis(4-fluorophenyl)-2-(4-methylsulfinylbenzyl)-5-(4-pyridyl)pyrazolo[3,4-b]pyridine]
The inhibition at 0.1 µM of the first is lower: 58.7% for the first, 60% for the second.

Going from NCc1n[nH]c2nc(-c3ccc(F)cc3)c(-c3ccncc3)c(-c3ccc(F)cc3)c12 [Example 68, 3-Aminomethyl-4,6-bis(4-fluorophenyl)-5-(4-pyridyl)-1H-pyrazolo[3,4-b]pyridine] to CNCCCn1cc2c(-c3ccc(F)cc3)c(-c3ccncc3)c(-c3ccc(F)cc3)nc2n1 [Example 78, N-Methyl-[3-[4,6-bis(4-fluorophenyl)-5-(4-pyridyl)pyrazolo[3,4-b]pyridin-2-yl]propyl]amine], the inhibition at 0.1 µM rises from 50% to 73.3%.

Going from COCCOCCn1cc2c(-c3ccc(F)cc3)c(-c3ccncc3)c(-c3ccc(F)cc3)nc2n1 [Example 82, 4,6-Bis(4-fluorophenyl)-2-[2-(2-methoxyethoxy)ethyl]-5-(4-pyridyl)pyrazolo[3,4-b]pyridine] to CC(=O)N1CCN(CCn2cc3c(-c4ccc(F)cc4)c(-c4ccncc4)c(-c4ccc(F)cc4)nc3n2)CC1 [Example 136, 1-[4-[2-[4,6-Bis(4-fluorophenyl)-5-(4-pyridyl)pyrazolo[3,4-b]pyridin-2-yl]ethyl]piperazin-1-yl]ethanone], the inhibition at 0.1 µM rises from 59.9% to 67%.

First: Fc1ccc(-c2nc3nn(Cc4cccnc4)cc3c(-c3ccc(F)cc3)c2-c2ccncc2)cc1 [Example 102, 4,6-Bis(4-fluorophenyl)-5-(4pyridyl)-2-(3-pyridylmethyl)pyrazolo[3,4-b]pyridine]
Second: Cn1cc2c(-c3ccco3)c(-c3ccncc3)c(-c3ccc(F)cc3)nc2n1 [Example 183, 6-(4-Fluorophenyl)-4-(2-furyl)-2-methyl-5-(4-pyridyl)pyrazolo[3,4-b]pyridine]
The inhibition at 0.1 µM of the first is higher: 67.9% for the first, 66.7% for the second.

Compared with Fc1ccc(-c2nc3nn(C4CCNCC4)cc3cc2-c2ccncc2)cc1 [Example 121, 6-(4-Fluorophenyl)-2-(4-piperidyl)-5-(4-pyridyl)pyrazolo[3,4-b]pyridine], Cn1cnc(-c2c(-c3ccncc3)c(-c3ccc(F)cc3)nc3nn(C)cc23)c1 [Example 184, 6-(4-Fluorophenyl)-2-methyl-4-(1-methyl-1H-imidazol-4-yl)-5-(4-pyridyl)pyrazolo[3,4-b]pyridine] is higher in inhibition at 0.1 µM: 52.1% for the first, 71.2% for the second.

Going from C[C@H](Nc1nccc(-c2cc3cn[nH]c3nc2-c2cccc(C(F)(F)F)c2)n1)c1ccccc1 [Example 128, (1S)-N-(1-Phenylethyl)-[4-[6-[3-(trifluoromethyl)phenyl]-1H-pyrazolo[3,4-b]pyridin-5-yl]pyrimidin-2-yl]amine] to C[C@H](Nc1nccc(-c2cc3cn(CCCO)nc3nc2-c2cccc(C(F)(F)F)c2)n1)c1ccccc1 [Example 209, (1S)-3-[5-[2-(1-Phenylethylamino)-pyrimidin-4-yl]-6-(3-trifluoromethylphenyl)pyrazolo[3,4-b]pyridin-2-yl]propan-1-ol], the inhibition at 0.1 µM rises from 82% to 84.2%.

First: OCCCn1cc2c(-c3ccccc3)c(-c3ccncc3)c(-c3ccccc3)nc2n1 [Example 137, 3-[4,6-Diphenyl-5-(4-pyridyl)pyrazolo[3,4-b]pyridin-2-yl]propan-1-ol]
Second: OCCn1cc2cc(-c3ccnc(NCC4CC4)n3)c(-c3ccc(F)cc3)nc2n1 [Example 211, 2-[5-[2-[(Cyclopropylmethyl)-amino]pyrimidin-4-yl]-6-(4-fluorophenyl)pyrazolo[3,4-b]pyridin-2-yl]ethanol]
The inhibition at 0.1 µM of the first is lower: 61.4% for the first, 70.6% for the second.

First: FC(F)(F)c1cccc(-c2nc3[nH]ncc3cc2-c2ccnc(NCC3CC3)n2)c1 [Example 208, N-Cyclopropylmethyl-[4-[6-[3-(trifluoromethyl)phenyl]-1H-pyrazolo[3,4-b]pyridin-5-yl]pyrimidin-2-yl]amine]
Second: Cn1cc2cc(-c3ccnc(NCC4CC4)n3)c(-c3ccc(F)cc3)nc2n1 [Example 210, N-Cyclopropylmethyl-[4-[6-(4-fluorophenyl)-2-methylpyrazolo[3,4-b]pyridin-5-yl]pyrimidin-2-yl]amine]
The inhibition at 0.1 µM of the first is higher: 67.7% for the first, 57.3% for the second.

same assay, conditions: test product at 0.1 μM, LPS 400 ng/mL, 19 h, TNF-α in supernatant by ELISA

Compared with “6-(4-Fluorophenyl)-4-methyl-5-(2-methylsulfanylpyrimidin-4-yl)-1H-pyrazolo[3,4-b]pyridine [Example 237]”, OCCCn1cc2c(-c3ccc(F)cc3)c(-c3ccncc3)c(-c3ccc(F)cc3)nc2n1 [Example 18, 3-[4,6-Bis(4-fluorophenyl)-5-(4-pyridyl)pyrazolo[3,4-b]pirridin-2-yl]propan-1-ol] is higher in “% Inhibition at 0.1 μM” value: 53.4% for the first, 82.6% for the second.

Compared with Cc1c2c(-c3ccc(F)cc3)c(-c3ccncc3)c(-c3ccc(F)cc3)nc2nn1C1CCNCC1 [Example 41, 4,6-Bis(4-fluorophenl)-3-methyl-2-(4-piperidyl)-5-(4-pyridyl)pyrazolo[3,4-b]pyridine], Cn1cc2c(-c3ccc(Br)s3)c(-c3ccncc3)c(-c3ccc(F)cc3)nc2n1 [Example 188, 4-(5-Bromothien-2-yl)-6-(4-fluoro-phenyl)-2-methyl-5-(4-pyridyl)-1H-pyrazolo[3,4-b]pyridine] is lower in “% Inhibition at 0.1 μM” value: 90.6% for the first, 73.2% for the second.
